Measured values as given in US20100216875A1, “METHODS OF TREATING ALZHEIMER'S DISEASE” (priority 2006, published 2010).

System: β-secretase activity as measured by the APP-derived CTFβ fragment
Assay: guinea pig brain CTFβ (β-secretase activity) after icv infusion
Type: in vivo
Conditions: 0.15 mg/kg/day infused for 7 days; western blot
Protocol: To better evaluate the effects of CA074Me on β-secretase activity, relative brain levels of CTRβ were assessed by western blots. The CTRβ fragment results from processing of APP at the β-secretase site, which produces the C-terminal β-secretase fragment (CTFβ) of 12 kDA on SDS-PAGE gels.
Brains from animals described in relation to FIG. 10 were extracted and analyzed for CTFβ by […].
Cathepsin B inhibitors were administered directly into the brain by icy infusion with minipumps in time course studies at different doses. Guinea pigs were infused with compounds using Alzet pumps (2.5 μl/hr, with compounds at 1 mg/ml in saline) for 7 and 30 days, and other times. This initial dose of compound was selected because E64d and CA074Me are effective at this dose. Each treatment group consisted of eight to ten guinea pigs, including the vehicle control group.

SMILES: CCCNC(=O)[C@H]1O[C@@H]1C(=O)N[C@H](C(=O)N1CCC[C@H]1C(=O)OC)[C@@H](C)CC [CA074Me]
- decrease in the amount of brain CTFβ: 50%
